This note sets out measurements from paper PMC11736000, “Structural and functional analysis of a bile salt hydrolase from the bison microbiome” (The Journal of Biological Chemistry, 2024).

The target of this test is T1, bile salt hydrolase from Arthrobacter citreus EINP1 (BSHAc) (Arthrobacter citreus, UniProt A0ABZ2ZT44).
T1 construct: gene bsh; C-terminally hexahistidine-tagged recombinant BSHAc; NCBI WP_342023006.1
As to the kind of experiment: […] Å crystal structure of the covalent complex; time-dependent inactivation kinetics of the purified enzyme (kinact/KI […] ^-1s^-1). The test is classed as biochemical.

Molecules are shown by their SMILES.

T1 sequence (A0ABZ2ZT44 entry or part of it): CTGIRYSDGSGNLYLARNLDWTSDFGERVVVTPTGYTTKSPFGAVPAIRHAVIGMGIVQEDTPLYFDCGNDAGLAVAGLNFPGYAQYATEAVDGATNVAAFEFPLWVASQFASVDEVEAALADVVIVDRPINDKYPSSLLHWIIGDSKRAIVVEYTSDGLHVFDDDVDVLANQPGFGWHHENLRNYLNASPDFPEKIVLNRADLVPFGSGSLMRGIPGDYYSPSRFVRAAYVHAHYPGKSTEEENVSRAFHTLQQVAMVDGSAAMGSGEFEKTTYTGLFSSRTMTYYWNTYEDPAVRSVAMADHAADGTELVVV

For the molecule `C[C@H](CCC(=O)CF)[C@H]1CC[C@H]2[C@@H]3CC[C@@H]4C[C@H](OS(=O)(=O)O)CC[C@]4(C)[C@H]3CC[C@]12C` [AAA-10], the KI (inactivation) was 23 µM.
